Key:
[1] = tested on: phosphorylation of myosin regulatory light chain; experiment: Inhibitory action on phosphorylation of myosin regulatory light chain (Test Example 1); type: cell-based; conditions: Neutrophil, 5 min; human peripheral blood neutrophils, 25° C. for 5 minutes; read-out: IC50, compound concentration providing a phosphorylation inhibition ratio of 50% (myosin regulatory light chain)
Protocol: A volume of 50 to 100 ml of peripheral blood collected from healthy volunteers was centrifuged by using Mono-Poly separator solution (Dainippon Pharmaceutical) to prepare a neutrophil containing fraction. The neutrophils were washed with PBS(−) and resuspended in Hanks' Balanced Salt Solution (HBSS+, Gibco) to prepare a cell suspension (8×10^6/ml). The cell suspension was diluted to 5×10^6/ml, introduced into Eppendorf tubes in a volume of 0.4 ml each, then 0.1 ml each of solutions of a test compound at various concentrations were added to the suspension and allowed to react at 25° C. for 5 minutes. After the reaction, 0.1 ml of trichloroacetic acid solution was added to each reaction mixture, the reaction mixture was gently shaken and centrifuged at 12,000 rpm (4° C., 5 minutes), and the supernatant was removed. Subsequently, 3 μl of 1 M Tris solution was added to the residue, the mixture was further mixed with 50 μl of extraction buffer (8 M urea, 0.02% 2-mercaptoethanol, 0.002% bromophenol blue) and left stand at room temperature for 1 hour. Then, the reaction mixture was loaded on a spin column (0.45 μm, Millipore) to remove the insoluble solids and a sample buffer for SDS polyacrylamide gel electrophoresis (25 mM, Tris-HCl pH 6.8, 2.5% 2-mercaptoethanol, 2% sodium dodecylsulfate, 5% sucrose, 0.002% bromophenol blue as final concentrations) was added, and 10 μl of each sample was subjected to electrophoresis.
The gel after the electrophoresis was blotted on a nitrocellulose membrane (BioRad), blocked with 5% skim milk, and reacted successively with antibodies pLC1 (Sakurada K. et al, Am. J. Physiol., 274, C1563-C1572 (1998)), which specifically recognize the phosphorylated myosin regulatory light chain, and donkey anti-mouse IgG (Chemicon) conjugated with horseradish peroxidase. The band of the phosphorylated myosin regulatory light chain was detected on a film by using ECL Plus Kit (Amersham Pharmacia Biotech). This band was subjected to quantification using a densitometer. By using this value, the inhibitory ratio (%) for phosphorylation of the myosin regulatory light chain was calculated by using the following equation. Phosphorylation inhibition ratio(%)=1−(Band intensity of phosphorylated myosin regulatory light chain with addition of the test compound/Band intensity of phosphorylated myosin regulatory light chain without addition of the test compound)×100
Further, the phosphorylation inhibition ratio was calculated with changing the concentrations of the test compound, and a compound concentration providing an inhibition ratio of 50% was obtained as IC50.

neutrophils = experiment: Neutrophil migration inhibitory action, Boyden Chamber, FMLP (Test Example 3); type: cell-based; conditions: 0.5 h, human neutrophils, FMLP 1 μM, 37° C., 30 minutes, read-out: IC50, compound concentration providing a migration inhibition ratio of 50%
Protocol: Neutrophils were isolated from 50 to 100 ml of peripheral blood collected from healthy human donors by the method described in Test Example 1 to obtain a cell suspension (8×10^6/ml). Subsequently, solutions of a test compound at various concentrations were introduced into wells of a 96-well plate in a volume of 125 μl per well, the cell suspension of an equivalent volume was added to it and the plate was preincubated at room temperature for 5 minutes. During the preincubation, FMLP (1 μM, Sigma) solution was added to the lower chamber to set Boyden Chamber, the preincubated cell suspension was added to the upper chamber in a volume of 200 μl per well, and the cells were allowed to migrate at 37° C. under 5% carbon dioxide for 30 minutes. The filter after the migration was collected, and the non-migrated cells adhered to the surface that faced the upper chamber were carefully wiped off. Then, the migrated cells on the back surface were stained with DifQuick dye solution (International Reagents), washed with water and dried, and then absorbance was measured at 595 nm. The inhibition ratio against migration (%) of a test compound was calculated by using the following equation: Migration inhibition ratio(%)=(1−Absorbance of the group with addition of test compound/Absorbance of the group without addition of test compound)×100
Further, the migration inhibitory ratio was calculated with changing the test compound concentration, and a compound concentration providing an inhibition ratio of 50% was obtained as IC50.

[2] = tested on: monkey intraocular pressure; experiment: Intraocular pressure reduction enhancing action in monkey (Test Example 7); type: in vivo; conditions: cynomolgus monkey
Protocol: Moreover, as for the test compound used for combination use, similar effect can be obtained also with the compounds of the present invention represented with the example numbers mentioned in Test Example 2. The test is performed by using cynomolgus monkeys sufficiently naturalized for the operation of fixation on a monkey chair and ophathalmotonometry.
As the test compound, the 19-1 compound is dissolved in physiological saline, and the solution is neutralized by addition of sodium hydroxide (pH 7.0 to 8.0) to prepare a 0.01 weight % aqueous solution (19-1 compound aqueous solution). As a drug for combination use, latanoprost (trade name: Xalatan, Pfizer) is used as the marketed formulation per se. The test aqueous solution or the drug for combination use is instilled to the left eye, and the right eye is not treated (control eye). […] After initial intraocular pressure values of the monkeys are measured for each group, 30 μL of physiological saline is instilled to the control group, single drug group 1, and single drug group 2, and latanoprost is instilled in the same volume to the combination use group. […] Then, the intraocular pressure is measured over time for each group.

- IC50 [1]: < 10 µM
- IC50 (neutrophils): 10 to 40 µM
SMILES: N[C@H]1CCN(S(=O)(=O)c2cccc3cncc(Cl)c23)C1 [Example 19-1, (S)-3-Amino-1-(4-chloro-5-isoquinolinesulfonyl)pyrrolidine]
- intraocular pressure reducing action in the single drug group 1 ([2]; 0.01 weight % aqueous solution, 30 μL): exceeding that of the control group
- intraocular pressure reducing action in the combination use group ([2]; latanoprost (Xalatan) 30 μL, 5 minutes later 19-1 compound aqueous solution 30 μL): exceeding those of both the single drug group 1 and single drug group 2

— patent US7618984B2, “Sulfonamide compound” (Asahi Kasei Pharma Corporation, priority 2005, dated 2009)
